Data from ChEMBL document CHEMBL1155509, “3-Indolyl sultams as selective CRTh2 antagonists” (Bioorg Med Chem Lett, 2010).

Tests used:
[1] = target: T1, Prostaglandin D2 receptor 2 (Homo sapiens, UniProt Q9Y5Y4); experiment: Binding affinity to human prostaglandin D2 receptor by cell based radioligand displacement assay
T1 sequence (Q9Y5Y4 whole entry): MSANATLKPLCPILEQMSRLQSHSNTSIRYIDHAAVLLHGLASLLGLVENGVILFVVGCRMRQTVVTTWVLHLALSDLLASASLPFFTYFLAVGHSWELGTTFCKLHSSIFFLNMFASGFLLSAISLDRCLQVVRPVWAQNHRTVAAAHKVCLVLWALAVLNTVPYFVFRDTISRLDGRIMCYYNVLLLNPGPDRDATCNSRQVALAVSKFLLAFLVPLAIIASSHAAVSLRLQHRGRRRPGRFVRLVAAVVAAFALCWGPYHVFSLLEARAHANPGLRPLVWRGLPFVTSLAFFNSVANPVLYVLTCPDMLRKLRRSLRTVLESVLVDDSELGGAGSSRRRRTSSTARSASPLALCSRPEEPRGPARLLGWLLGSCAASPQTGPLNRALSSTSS

[2] = target: T2, Prostaglandin D2 receptor (Homo sapiens) (UniProt Q13258); experiment: Binding affinity to human prostaglandin D1 receptor at 10 uM by radioligand displacement assay
T2 sequence (whole entry): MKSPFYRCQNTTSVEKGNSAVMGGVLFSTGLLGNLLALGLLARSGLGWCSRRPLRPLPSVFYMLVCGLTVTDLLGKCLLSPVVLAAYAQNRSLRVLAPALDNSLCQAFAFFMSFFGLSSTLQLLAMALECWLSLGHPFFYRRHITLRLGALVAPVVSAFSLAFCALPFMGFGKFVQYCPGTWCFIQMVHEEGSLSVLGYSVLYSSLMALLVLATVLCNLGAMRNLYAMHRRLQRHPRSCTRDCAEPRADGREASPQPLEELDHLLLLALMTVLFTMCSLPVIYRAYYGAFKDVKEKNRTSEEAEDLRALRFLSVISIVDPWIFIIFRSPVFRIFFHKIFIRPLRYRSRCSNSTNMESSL

Thromboxane A2 receptor = target: T3, Thromboxane A2 receptor (Homo sapiens, UniProt P21731); experiment: Binding affinity to human thromboxane A2 receptor by radioligand displacement assay
T3 sequence (P21731 whole entry): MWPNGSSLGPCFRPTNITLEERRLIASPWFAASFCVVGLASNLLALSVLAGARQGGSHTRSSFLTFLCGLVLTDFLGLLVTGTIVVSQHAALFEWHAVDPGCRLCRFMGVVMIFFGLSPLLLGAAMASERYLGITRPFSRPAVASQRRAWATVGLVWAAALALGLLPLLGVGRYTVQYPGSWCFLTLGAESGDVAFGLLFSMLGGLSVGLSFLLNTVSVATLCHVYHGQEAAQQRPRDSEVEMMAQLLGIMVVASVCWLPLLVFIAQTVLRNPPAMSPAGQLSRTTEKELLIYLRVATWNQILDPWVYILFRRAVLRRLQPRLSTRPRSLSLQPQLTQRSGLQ

[3] = target: T1, Prostaglandin D2 receptor 2; experiment: Antagonist activity at human prostaglandin D2 receptor assessed as inhibition of PGD2-induced receptor activation by cell based FLIPR assay; format: functional
[4] = target: T4, Thromboxane A2 receptor (Homo sapiens) (UniProt P21731); experiment: Binding affinity to human thromboxane A2 receptor at 10 uM by radioligand displacement assay
T4 sequence (whole entry): T3 sequence (P21731 whole entry)

| Structure (SMILES) | Ki [1] | also measured |
| --- | --- | --- |
| Cc1noc(C)c1CN1C(c2c(C)n(CC(=O)O)c3ccccc23)CCS1(=O)=O (racemic) | 0.023 µM |  |
| Cc1ccc2c(c1)c(C1NS(=O)(=O)c3ccccc31)c(C)n2CC(=O)O (racemic) | 1.5 µM |  |
| Cc1noc(C)c1CN1C(c2cn(CC(=O)O)c3ccccc23)c2ccccc2S1(=O)=O (racemic) | 0.018 µM |  |
| Cc1c(C2NS(=O)(=O)c3ccccc32)c2cc(Cl)ccc2n1CC(=O)O (racemic) | 0.69 µM |  |
| Cc1c(C2c3ccccc3S(=O)(=O)N2CCOc2ccc(Cl)cc2)c2ccccc2n1CC(=O)O (racemic) | 0.035 µM | inhibition [2]: 28%; Ki (Thromboxane A2 receptor): 3.4 µM |
| O=C(O)Cn1cc(C2NS(=O)(=O)c3ccccc32)c2ccccc21 (racemic) | 9.2 µM |  |
| Cc1ccc2c(c1)c(C1NS(=O)(=O)c3ccccc31)cn2CC(=O)O (racemic) | 2.9 µM |  |
| O=C(O)Cn1cc(C2NS(=O)(=O)c3ccccc32)c2cc(Cl)ccc21 (racemic) | 2.9 µM |  |
| Cc1c(C2c3ccccc3S(=O)(=O)N2CCCOc2ccccc2)c2ccccc2n1CC(=O)O (racemic) | 1.4 µM |  |
| Cc1noc(C)c1CN1C(c2c(C)n(CC(=O)O)c3ccccc23)c2ccccc2S1(=O)=O (racemic) | 0.012 µM | Ki [3]: 0.028 µM; inhibition [4]: 0%; inhibition [2]: 0% |
| Cc1noc(-c2ccccc2)c1CN1C(c2c(C)n(CC(=O)O)c3ccccc23)c2ccccc2S1(=O)=O (racemic) | 0.013 µM |  |
| Cc1noc(C)c1CN1C(c2c(C)n(CC(=O)O)c3ccc(Cl)cc23)c2ccccc2S1(=O)=O (racemic) | 0.008 µM | inhibition [4]: 0%; inhibition [2]: 15% |
| Cc1c(C2c3ccccc3S(=O)(=O)N2CCc2ccccc2)c2ccccc2n1CC(=O)O (racemic) | 0.22 µM |  |
| Cc1c(C2c3ccccc3S(=O)(=O)N2CCOc2ccccc2)c2ccccc2n1CC(=O)O (racemic) | 0.029 µM | inhibition [2]: 0%; Ki (Thromboxane A2 receptor): 7.8 µM |
| Cc1noc(C)c1CN1C(C)(c2c(C)n(CC(=O)O)c3ccccc23)c2ccccc2S1(=O)=O (racemic) | 0.038 µM |  |
| O=C(O)Cn1cc(C2c3ccccc3S(=O)(=O)N2CCc2ccccc2)c2ccccc21 (racemic) | 0.63 µM |  |
| Cc1c(C2c3ccccc3S(=O)(=O)N2CCC(C)C)c2ccccc2n1CC(=O)O (racemic) | 0.56 µM |  |
| Cc1c(C2c3ccccc3S(=O)(=O)N2C(C)C)c2ccccc2n1CC(=O)O (racemic) | 0.92 µM |  |
| Cc1c(C2c3ccccc3S(=O)(=O)N2c2ccccc2)c2ccccc2n1CC(=O)O (racemic) | 0.48 µM |  |
| Cc1c(C2NS(=O)(=O)c3ccccc32)c2cc(F)ccc2n1CC(=O)O (racemic) | 0.43 µM |  |
| CN1C(c2cn(CC(=O)O)c3ccccc23)c2ccccc2S1(=O)=O (racemic) | 8.1 µM |  |
| O=C(O)Cn1cc(C2c3ccccc3S(=O)(=O)N2Cc2ccccc2)c2ccccc21 (racemic) | 1.1 µM |  |
| N#Cc1ccc2c(c1)c(C1NS(=O)(=O)c3ccccc31)cn2CC(=O)O (racemic) | 2 µM |  |
| Cc1c(C2NS(=O)(=O)c3ccccc32)c2ccccc2n1CC(=O)O (racemic) | 2.8 µM |  |
| Cc1c(C2c3ccccc3S(=O)(=O)N2CCO)c2ccccc2n1CC(=O)O (racemic) | 1.4 µM |  |
| CC(C)CCN1C(c2cn(CC(=O)O)c3ccccc23)c2ccccc2S1(=O)=O (racemic) | 2.3 µM |  |
